We go through 32 compounds from patent publication US10005774B2, “Syk inhibitors” (Gilead Sciences, Inc., priority 2013, dated 2018).

In one assay the target is Syk (Homo sapiens, UniProt P43405). As to the kind of experiment: High Throughput Syk Biochemical Assay (KinEASE TR-FRET). As to conditions: TABLE D, 20 μM ATP, 1 μM biotinylated peptide, 0.015 nM Syk, 30 min at room temperature, read-out: IC50. A digest of the protocol: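 Compounds in DMSO dilution series were tested against Syk, which phosphorylates an XL665-tagged peptide. The phosphoproduct was bound by Eu-labelled phosphotyrosine antibody in a two-step endpoint format.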
(In TR-FRET formats the signal depends on donor and acceptor labels being close together.)
`COc1ccc(-c2cc3ncn(C(C)C)c3c(O[C@H](C)[C@H]3CNC(=O)C3)n2)cc1OC` [(R)-4-((R)-1-(6-(3,4-dimethoxyphenyl)-3-isopropyl-3H-imidazo[4,5-c]pyridin-4-yloxy)ethyl)pyrrolidin-2-one]: the IC50 was 3.39 nM.

As for `CC(=O)N1CCN(c2ccc(-c3cc(O[C@H](C)[C@H]4CNC(=O)C4)c4scnc4c3)nc2)CC1` (stereo in doubt) [(R)-4-((R)-1-((5-(5-(4-acetylpiperazin-1-yl)pyridin-2-yl)benzo[d]thiazol-7-yl)oxy)ethyl)pyrrolidin-2-one], the IC50 was 1.59 nM.

Turning to `C[C@@H](Oc1nc(-c2cnn(C(C)(C)C)c2)cc2ncn(C)c12)[C@H]1CNC(=O)C1` [(R)-4-((R)-1-(6-(1-tert-butyl-1H-pyrazol-4-yl)-3-methyl-3H-imidazo[4,5-c]pyridin-4-yloxy)ethyl)pyrrolidin-2-one], the concentration for half-maximal inhibition (IC50) came out at 4.9 nM.

Consider `C[C@@H](Oc1cc(-c2cnn(C(C)(C)C)c2)cc2ncn(C)c12)[C@H]1CNC(=O)C1` [(R)-4-((R)-1-((5-(1-(tert-butyl)-1H-pyrazol-4-yl)-1-methyl-1H-benzo[d]imidazol-7-yl)oxy)ethyl)pyrrolidin-2-one], for which the IC50 was 5.35 nM.

In the case of `CC(=O)N1CCN(c2ccc(-c3cc4ncn(C)c4c(O[C@H](C)[C@H]4CNC(=O)C4)n3)cc2)CC1` [(R)-4-((R)-1-(6-(4-(4-acetylpiperazin-1-yl)phenyl)-3-methyl-3H-imidazo[4,5-c]pyridin-4-yloxy)ethyl)pyrrolidin-2-one], the IC50 is 3.14 nM.

With `Cn1cnc2cc(-c3cnn(C(C)(C)C)c3)nc(O[C@H](CF)[C@H]3CNC(=O)C3)c21` [(R)-4-((S)-1-(6-(1-tert-butyl-1H-pyrazol-4-yl)-3-methyl-3H-imidazo[4,5-c]pyridin-4-yloxy)-2-fluoroethyl)pyrrolidin-2-one], the IC50 was 20.1 nM.

In the case of `CC[C@@H](Oc1nc(-c2cnn(C(C)(C)C)c2)cc2ncn(C)c12)[C@H]1CNC(=O)C1` [(R)-4-((R)-1-(6-(1-tert-butyl-1H-pyrazol-4-yl)-3-methyl-3H-imidazo[4,5-c]pyridin-4-yloxy)propyl)pyrrolidin-2-one], the IC50 worked out at 24 nM.

For the compound `C[C@@H](Oc1nc(-c2ccc(N3CCN(C4COC4)CC3)cc2)cc2ncn(C)c12)[C@H]1CNC(=O)C1` [(R)-4-((R)-1-(3-methyl-6-(4-(4-(oxetan-3-yl)piperazin-1-yl)phenyl)-3H-imidazo[4,5-c]pyridin-4-yloxy)ethyl)pyrrolidin-2-one], the IC50 was 8.21 nM.

For the compound `C[C@@H](Oc1cc(-c2cc3c(cnn3C)s2)cc2ncsc12)[C@H]1CNC(=O)C1` (stereo in doubt) [(R)-4-((R)-1-((5-(1-methyl-1H-thieno[3,2-c]pyrazol-5-yl)benzo[d]thiazol-7-yl)oxy)ethyl)pyrrolidin-2-one], the IC50 is 2.97 nM.

As to `COc1ccc(-c2cc(O[C@H](C)[C@H]3CNC(=O)C3)c3scnc3c2)nc1OC` (stereo in doubt) [(R)-4-((R)-1-((5-(5,6-dimethoxypyridin-2-yl)benzo[d]thiazol-7-yl)oxy)ethyl)pyrrolidin-2-one], the IC50 stood at 0.689 nM.

For `CC(C)n1cc(-c2cc(O[C@H](C)[C@H]3CNC(=O)C3)c3ccnn3c2)cn1` [(R)-4-((R)-1-(6-(1-isopropyl-1H-pyrazol-4-yl)pyrazolo[1,5-a]pyridin-4-yloxy)ethyl)pyrrolidin-2-one], the IC50 is 4.15 nM.

In the case of `COc1ccc(-c2cc(O[C@H](C)[C@H]3CNC(=O)C3)c3ccnn3c2)cc1OC` [(R)-4-((R)-1-((6-(3,4-dimethoxyphenyl)pyrazolo[1,5-a]pyridin-4-yl)oxy)ethyl)pyrrolidin-2-one], the IC50 turned out to be 39.1 nM.

Consider `COc1ccc(-c2cn3ncc(Cl)c3c(O[C@H](C)[C@H]3CNC(=O)C3)n2)cc1OC` [(R)-4-((R)-1-((3-chloro-6-(3,4-dimethoxyphenyl)pyrazolo[1,5-a]pyrazin-4-yl)oxy)ethyl)pyrrolidin-2-one], for which the IC50 worked out at 0.321 nM.

Turning to `C[C@@H](Oc1nc(-c2cccc(N3CCOCC3)c2)cc2ncn(C)c12)[C@H]1CNC(=O)C1` [(R)-4-((R)-1-(3-methyl-6-(3-morpholinophenyl)-3H-imidazo[4,5-c]pyridin-4-yloxy)ethyl)pyrrolidin-2-one], the IC50 came out at 102 nM.

On to `C[C@@H](Oc1cc(-c2ccc(N3CCOCC3)cc2)cn2ncc(Cl)c12)[C@H]1CNC(=O)C1` [(R)-4-((R)-1-((3-chloro-6-(4-morpholinophenyl)pyrazolo[1,5-a]pyridin-4-yl)oxy)ethyl)pyrrolidin-2-one], for which the IC50 came to 0.31 nM.

Turning to `COc1ccc(-c2cc3nc[nH]c3c(O[C@H](C)[C@H]3CNC(=O)C3)n2)cc1OC` [(R)-4-((R)-1-(6-(3,4-dimethoxyphenyl)-3H-imidazo[4,5-c]pyridin-4-yloxy)ethyl)pyrrolidin-2-one], the IC50 was 513 nM.

Take `COc1ccc(-c2cn3nc(C)cc3c(O[C@H](C)[C@H]3CNC(=O)C3)n2)cc1OC` [(R)-4-((R)-1-((6-(3,4-dimethoxyphenyl)-2-methylpyrazolo[1,5-a]pyrazin-4-yl)oxy)ethyl)pyrrolidin-2-one]: the IC50 came out at 31.4 nM.

`C[C@@H](Oc1cc(-c2ccc(N3CCOCC3)cc2)cn2nccc12)[C@H]1CNC(=O)C1` [(R)-4-((R)-1-((6-(4-morpholinophenyl)pyrazolo[1,5-a]pyridin-4-yl)oxy)ethyl)pyrrolidin-2-one]: the IC50 turned out to be 7.85 nM.

Regarding `C[C@@H](Oc1nc(-c2ccc(N3CCN(S(C)(=O)=O)CC3)cc2)cc2ncn(C)c12)[C@H]1CNC(=O)C1` [(R)-4-((R)-1-(3-methyl-6-(4-(4-(methylsulfonyl)piperazin-1-yl)phenyl)-3H-imidazo[4,5-c]pyridin-4-yloxy)ethyl)pyrrolidin-2-one], the 50% inhibitory concentration (IC50) came out at 4.46 nM.

The assay is the same for the next values; noted with them: table 'ALL NEW COMPOUNDS IN 2014', 20 μM ATP, 1 μM biotinylated peptide, 0.015 nM Syk, 30 min at room temperature, read-out: Syk IC50.
`C[C@@H](Oc1cc(-c2cnc(C(C)(C)O)s2)cc2ncn(C3CC3)c12)[C@H]1CNC(=O)C1` [(R)-4-((R)-1-((1-cyclopropyl-5-(2-(2-hydroxypropan-2-yl)thiazol-5-yl)-1H-benzo[d]imidazol-7-yl)oxy)ethyl)pyrrolidin-2-one]: the IC50 stood at 1.41 nM.

Regarding `C[C@@H](Oc1nc(-c2cnc(N3CCN(C4COC4)CC3)c(F)c2)cc2ncn(C3CC3)c12)[C@H]1CNC(=O)C1` [(R)-4-((R)-1-((3-cyclopropyl-6-(5-fluoro-6-(4-(oxetan-3-yl)piperazin-1-yl)pyridin-3-yl)-3H-imidazo[4,5-c]pyridin-4-yl)oxy)ethyl)pyrrolidin-2-one], the IC50 came out at 17.2 nM.

`C[C@@H](Oc1cc(-c2ccc3c(c2)NCCO3)cc2ncn(C3CC3)c12)[C@H]1CNC(=O)C1` [(R)-4-((R)-1-((1-cyclopropyl-5-(3,4-dihydro-2H-benzo[b][1,4]oxazin-6-yl)-1H-benzo[d]imidazol-7-yl)oxy)ethyl)pyrrolidin-2-one]: the IC50 is 2.56 nM.

For the compound `C[C@@H](Oc1cc(-c2cnn(CC(C)(C)O)c2)cc2ncn(C3CC3)c12)[C@H]1CNC(=O)C1` [(R)-4-((R)-1-((1-cyclopropyl-5-(1-(2-hydroxy-2-methylpropyl)-1H-pyrazol-4-yl)-1H-benzo[d]imidazol-7-yl)oxy)ethyl)pyrrolidin-2-one], the concentration for half-maximal inhibition (IC50) was determined as 1.73 nM.

Turning to `C[C@@H](Oc1nc(-c2ccncc2)cc2ncn(C3CC3)c12)[C@H]1CNC(=O)C1` [(R)-4-((R)-1-((3-cyclopropyl-6-(pyridin-4-yl)-3H-imidazo[4,5-c]pyridin-4-yl)oxy)ethyl)pyrrolidin-2-one], the IC50 stood at 11.9 nM.

With `C[C@@H](Oc1cc(-c2cnc(C3CCOCC3)s2)cc2ncn(C3CC3)c12)[C@H]1CNC(=O)C1` [(R)-4-((R)-1-((1-cyclopropyl-5-(2-(tetrahydro-2H-pyran-4-yl)thiazol-5-yl)-1H-benzo[d]imidazol-7-yl)oxy)ethyl)pyrrolidin-2-one], the 50% inhibitory concentration (IC50) is 0.54 nM.

As for `C[C@@H](Oc1cc(-c2ccc(N3CCN(C4COC4)CC3)c(C#N)c2)cc2ncn(C3CC3)c12)[C@H]1CNC(=O)C1` [5-(1-cyclopropyl-7-((R)-1-((R)-5-oxopyrrolidin-3-yl)ethoxy)-1H-benzo[d]imidazol-5-yl)-2-(4-(oxetan-3-yl)piperazin-1-yl)benzonitrile], the IC50 is 3.2 nM.

`C[C@@H](Oc1cc(-c2cnn(-c3ccncc3)c2)cc2ncn(C3CC3)c12)[C@H]1CNC(=O)C1` [(R)-4-((R)-1-((1-cyclopropyl-5-(1-(pyridin-4-yl)-1H-pyrazol-4-yl)-1H-benzo[d]imidazol-7-yl)oxy)ethyl)pyrrolidin-2-one]: the IC50 worked out at 7.58 nM.

Regarding `C[C@@H](Oc1cc(-c2cnn(C)c2)cc2ncn(C3CC3)c12)[C@H]1CNC(=O)C1` [(R)-4-((R)-1-((1-cyclopropyl-5-(1-methyl-1H-pyrazol-4-yl)-1H-benzo[d]imidazol-7-yl)oxy)ethyl)pyrrolidin-2-one], the IC50 came to 4.44 nM.

On to `C[C@@H](Oc1nc(-c2ccc3c(c2)NC(=O)C32CCN(S(C)(=O)=O)CC2)cc2ncn(C3CC3)c12)[C@H]1CNC(=O)C1` [6-(3-cyclopropyl-4-((R)-1-((R)-5-oxopyrrolidin-3-yl)ethoxy)-3H-imidazo[4,5-c]pyridin-6-yl)-1′-(methylsulfonyl)spiro[indoline-3,4′-piperidin]-2-one], for which the IC50 is 1.08 nM.

As to `C[C@@H](Oc1nc(-c2ccc3c(cnn3CC(F)F)c2)cc2ncn(C3CC3)c12)[C@H]1CNC(=O)C1` [(R)-4-((R)-1-((3-cyclopropyl-6-(1-(2,2-difluoroethyl)-1H-indazol-5-yl)-3H-imidazo[4,5-c]pyridin-4-yl)oxy)ethyl)pyrrolidin-2-one], the concentration for half-maximal inhibition (IC50) came to 1.81 nM.

Consider `C[C@@H](Oc1nc(-c2ccc(N3CCN(S(=O)(=O)C4COC4)CC3)cc2)cc2ncn(C3CC3)c12)[C@H]1CNC(=O)C1` [(R)-4-((R)-1-((3-cyclopropyl-6-(4-(4-(oxetan-3-ylsulfonyl)piperazin-1-yl)phenyl)-3H-imidazo[4,5-c]pyridin-4-yl)oxy)ethyl)pyrrolidin-2-one], for which the IC50 was found to be 1.31 nM.

On to `C[C@@H](Oc1nc(-c2cnn(C3COC3)c2)cc2ncn(C3CC3)c12)[C@H]1CNC(=O)C1`, for which the half-maximal inhibitory concentration (IC50) was 4.65 nM.

A word on the IC50: it is the concentration at which inhibition is half-maximal.
